# Reference: patent US12391692B2, “Spiro ring-containing quinazoline compound” (WIGEN BIOMEDICINE TECHNOLOGY (SHANGHAI) CO., LTD., priority 2020, dated 2025)
# What was measured:
# [1] = system: human pancreatic cancer Mia PaCa-2 xenograft tumors; experiment: Antitumor activity in mice, Mia PaCa-2 xenograft; format: in vivo; details: Mia PaCa-2 xenograft in nude mice; for Anti-tumor effect (regression): 10 mg/kg, qd*21, intragastric; for in vivo activity compared with control drug B: 10 mg/kg/day, 21 days
# Description: Human pancreatic cancer Mia PaCa-2 cells were cultured conventionally in 1640 medium containing 10% fetal bovine serum in a 37° C./5% CO2 incubator. After being subcultured, the cells were collected when they reached the desired amount. 1×10^7 Mia PaCa-2 cells were injected into the left dorsal side of each nude mouse, and the animals were randomly grouped for administration after tumors grew to 150 mm^3. The groups were as follows: 1) solvent control group, 8 mice; 2) compound 6 group, compound 14 group, compound 28 group, compound 44 group, compound 60 group, compound 103 group and control drug B (Example 35 in WO2018/143315), 8 mice in each group. The mice in the solvent control group was intragastrically administered with 0.5% CMC-Na once a day; and the mice in the compound groups were intragastrically administered with 0.5% CMC-Na suspension once a day. On Tuesday and Thursday each week, tumor volumes and body weight of the mice were measured, and the nude mice were sacrificed on day 21 during the treatment period.
# [2] = system: pERK level in H358 cells; experiment: pERK and ERK protein content assay in H358 cells (ELISA); format: cell-based; details: Homo sapiens, NCI-H358, pERK/ERK ratio vs DMSO group, compound 1 μM, 24 h, read-out: Inhibition rate (%)
# Method in brief: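 Percent inhibition of pERK relative to DMSO, from the ELISA pERK/ERK ratio in lysed H358 cells. Compound applied at 1 μM for 24 h after one day of growth.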
# [3] = system: H358 cells; experiment: Antiproliferative activity against H358 cells (Cell Titer Glow, ultra-low attachment plate); format: cell-based; details: Homo sapiens, NCI-H358, 72 h, three days after addition of compound
# Description: 2500 H358 cells were seeded in a 96-well ultra-low attachment plate (corning, 7007). After one day of growth, a serially diluted compound (a maximum concentration of 5 μM, 5-fold dilution, a total of five doses) was added. Three days after the addition of the compound, Cell Titer Glow (Promega, G9681) was added to evaluate pellet growth, and the IC50 value was calculated.
IC50 [3] [nM],SMILES,Anti-tumor effect (regression) [1] [% regression],in vivo activity compared with control drug B [1],inhibition at 1 µM [2] [%]
< 300,C=CC(=O)N1CC2(CCN(c3nc(N4CC(CN5CCC5)C4)nc4c(OCC(F)(F)F)c(-c5c(C)ccc6[nH]ncc56)c(C5CC5)cc34)CC2)C1 [Compound 6],35,stronger in vivo activity than the control drug B,> 90
< 300,C=CC(=O)N1CC2(CCN(c3nc(N4CC(OC5CN(C)C5)C4)nc4c(OCC(F)(F)F)c(-c5c(C)ccc6[nH]ncc56)c(C5CC5)cc34)CC2)C1 [Compound 14],37,stronger in vivo activity than the control drug B,> 90
< 300,C=CC(=O)N1CC2(CCN(c3nc(N4CC(N5CC6(CC6)C5)C4)nc4c(OCC(F)(F)F)c(-c5c(C)ccc6[nH]ncc56)c(C5CC5)cc34)CC2)C1 [Compound 28],42,stronger in vivo activity than the control drug B,> 90
< 300,C=CC(=O)N1CC2(CCN(c3nc(N4CC(N5CC(O)C5)C4)nc4c(OCC(F)(F)F)c(-c5c(C)ccc6[nH]ncc56)c(C5CC5)cc34)CC2)C1 [Compound 44],23,,> 90
< 300,C=CC(=O)N1CC2(CCN(c3nc(N4CC(C)(N5CCC5)C4)nc4c(OCC(F)(F)F)c(-c5c(C)ccc6[nH]ncc56)c(C5CC5)cc34)CC2)C1 [Compound 60],30,stronger in vivo activity than the control drug B,> 90
< 300,C=CC(=O)N1CC2(CCN(c3nc(N4CC5(CC(O)CN5C)C4)nc4c(OCC(F)(F)F)c(-c5c(C)ccc6[nH]ncc56)c(C5CC5)cc34)CC2)C1 (centres unmarked) [Compound 121],,,> 90
< 300,C=CC(=O)N1CC2(CCN(c3nc(N4CC5(CC(O)CN5CC)C4)nc4c(OCC(F)(F)F)c(-c5c(C)ccc6[nH]ncc56)c(C5CC5)cc34)CC2)C1 (centres unmarked) [Compound 122],,,> 90

# The next lines start with the molecule.
SMILES,IC50 [3] [nM],Anti-tumor effect (regression) [1] [% regression],in vivo activity compared with control drug B [1],inhibition at 1 µM [2] [%]
C=CC(=O)N1CC2(CCN(c3nc(N4CC(N5CC6(CC6)C5)C4)nc4c(OCC(F)(F)F)c(-c5c(F)ccc6[nH]ncc56)c(C5CC5)cc34)CC2)C1 [Compound 103],< 300,39,stronger in vivo activity than the control drug B,> 90
C=CC(=O)N1CC2(CCN(c3nc(N4CC5(CC(OC)CN5C)C4)nc4c(OCC(F)(F)F)c(-c5c(C)ccc6[nH]ncc56)c(C5CC5)cc34)CC2)C1 (centres unmarked) [Compound 123],< 300,,,> 90
C=CC(=O)N1CC2(CCN(c3nc(N4CC5(CC(OC)CN5CC)C4)nc4c(OCC(F)(F)F)c(-c5c(C)ccc6[nH]ncc56)c(C5CC5)cc34)CC2)C1 (centres unmarked) [Compound 124],< 300,,,> 90
C=CC(=O)N1CC2(CCN(c3nc(N4CC5(CC(=C)CN5C)C4)nc4c(OCC(F)(F)F)c(-c5c(C)ccc6[nH]ncc56)c(C5CC5)cc34)CC2)C1 [Compound 125],< 300,,,> 90
C=CC(=O)N1CC2(CCN(c3nc(N4CC5(CC(=C)CN5CC)C4)nc4c(OCC(F)(F)F)c(-c5c(C)ccc6[nH]ncc56)c(C5CC5)cc34)CC2)C1 [Compound 126],< 300,,,> 90
C=CC(=O)N1CC2(CCN(c3nc(N4CC5(C=CCN5C)C4)nc4c(OCC(F)(F)F)c(-c5c(C)ccc6[nH]ncc56)c(C5CC5)cc34)CC2)C1 [Compound 127],< 300,,,> 90
C=CC(=O)N1CC2(CCN(c3nc(N4CC5(C=CCN5CC)C4)nc4c(OCC(F)(F)F)c(-c5c(C)ccc6[nH]ncc56)c(C5CC5)cc34)CC2)C1 [Compound 128],< 300,,,> 90
C=CC(=O)N1CC2(CCN(c3nc(N4CC5(C4)CC(F)(F)CN5C)nc4c(OCC(F)(F)F)c(-c5c(C)ccc6[nH]ncc56)c(C5CC5)cc34)CC2)C1 [Compound 129],< 300,,,> 90
C=CC(=O)N1CC2(CCN(c3nc(N4CC5(C4)CC(F)(F)CN5CC)nc4c(OCC(F)(F)F)c(-c5c(C)ccc6[nH]ncc56)c(C5CC5)cc34)CC2)C1 [Compound 130],< 300,,,> 90
C=CC(=O)N1CC2(CCN(c3nc(N4CC5(CCCN5C)C4)nc4c(OCC(F)(F)F)c(-c5c(C)ccc6[nH]ncc56)c(C=C)cc34)CC2)C1 [Compound 131],< 300,,,> 90
C=CC(=O)N1CC2(CCN(c3nc(N4CC5(CCCN5CC)C4)nc4c(OCC(F)(F)F)c(-c5c(C)ccc6[nH]ncc56)c(C=C)cc34)CC2)C1 [Compound 132],< 300,,,> 90
